# Test results published in patent publication US8410049B2, “Methods and kits for preventing hypoglycemia” (Cebix, priority 2009, dated 2013).
# Assays:
# [1] = C-peptide plasma levels, time-resolved fluoroimmunoassay; assay type: in vivo, human; settings: for Increase in pre-dosing morning C-peptide plasma level vs baseline: 4.5 months (visit 3)
# Procedure: The sampling of C-peptide in plasma at visits 2 and 4 coincided with the clinical visit and the time between the most recent administration of the trial drug and sampling varied between patients. Thereby, the result of C-peptide concentrations in plasma was less suitable for pharmacokinetic evaluations, but the results contributed to the assessment of treatment compliance. C-peptide plasma levels were measured at baseline, and after 3 and 6 months of treatment. Analysis was performed by the Department of Clinical Chemistry Karolinska University Hospital, Solna using a time-resolved fluoroimmunoassay (AutoDelfia, Wallac Oy, Turku, Finland). […] The plasma levels of C-peptide attained in this study ranged from about 0.2 nM to a maximum of about 6 nM in the high dose group.
# [2] = tested on: type 1 diabetes patients with peripheral neuropathy; assay: ECG and vital signs; assay type: in vivo, human; settings: for BPd (diastolic blood pressure), change from baseline to 6 months treatment (visit 4), Mean ± SD / BPd (diastolic blood pressure), change from baseline to 6 months treatment (visit 4), Median / BPs (systolic blood pressure), change from baseline to 6 months treatment (visit 4), Mean ± SD / BPs (systolic blood pressure), change from baseline to 6 months treatment (visit 4), Median / Heart rate, change from baseline to 6 months treatment (visit 4), Mean ± SD / Heart rate, change from baseline to 6 months treatment (visit 4), Median / QTc-interval Bazett, change from baseline to 6 months treatment (visit 4), Mean ± SD / QTc-interval Bazett, change from baseline to 6 months treatment (visit 4), Median / QTc-interval Fredericia, change from baseline to 6 months treatment (visit 4), Mean ± SD / QTc-interval Fredericia, change from baseline to 6 months treatment (visit 4), Median: PP data set
# Procedure: At the final clinical visit (at 6 months from S/B visit), a safety assessment including physical examination, ECG, vital signs, body weight, and sampling for clinical safety laboratory tests were performed. Furthermore, the metabolic control (HbA1c) was assessed, as well as C-peptide antibodies and C-peptide levels in plasma. All efficacy variables including SCV, SNAP, MCV, MDL, CMAP, QST were performed (two examinations within 2-14 days). E/I ratio and neurological status were also assessed. All used and unused clinical trial medication was returned by the patient and drug accountability was performed by study staff. The patient diary was reviewed including recording of concomitant medication, AEs, and drug accountability. FIG. 1 summarizes the study procedures and assessments conducted at each time point.
# [3] = tested on: type 1 diabetes patients with peripheral neuropathy; assay: Clinical laboratory evaluation: hematology, clinical chemistries, urinalysis; assay type: in vivo, human; settings: following the study treatment
# Text: Before starting the study, the investigator supplied the Sponsor with a list of the normal laboratory ranges and units of measurement for the laboratory variables to be determined during the study at the site. All abnormal laboratory (those out of the normal range) values required comments on the CRF, regardless of the clinical significance: • Error—Include improper sample preparation, hemolysis, delayed transit to laboratory, etc. • Not relevant—Abnormality that was not alarming. • Patient condition—Abnormality that was a consequence of the patient's disease, age, etc. • Adverse event—Clinically relevant abnormal value that cannot be explained by the above assessment flags. Adverse Event/Serious Adverse Event CRF was filled in.
# Descriptive statistics were used for safety variables.
# [4] = subcutaneously administered; cited from earlier work
# [5] = tested on: type 1 diabetes patients with peripheral neuropathy; assay: Adverse events incl. severe hypoglycemic events and hypoglycemic coma; settings: for AEs of any severity: Tooth ache: Gastrointestinal Disorders
# [6] = Low-dose, ITT data set, Infections and infestations
# [7] = Low-dose, PP data set, Infections and infestations
# [8] = Low-dose, PP data set, Injury poisoning, procedural complications
# [9] = Low-dose, PP data set, Investigations
smiles,measurement,setting,value
"CC(C)C[C@H](NC(=O)[C@H](C)NC(=O)[C@H](CC(C)C)NC(=O)[C@@H]1CCCN1C(=O)[C@H](CCC(N)=O)NC(=O)[C@H](CC(C)C)NC(=O)[C@H](CO)NC(=O)CNC(=O)[C@H](C)NC(=O)CNC(=O)[C@@H]1CCCN1C(=O)CNC(=O)CNC(=O)CNC(=O)[C@H](CC(C)C)NC(=O)[C@H](CCC(=O)O)NC(=O)[C@@H](NC(=O)[C@H](CCC(N)=O)NC(=O)CNC(=O)[C@@H](NC(=O)[C@H](CCC(N)=O)NC(=O)[C@H](CC(C)C)NC(=O)[C@H](CC(=O)O)NC(=O)[C@H](CCC(=O)O)NC(=O)[C@H](C)NC(=O)[C@@H](N)CCC(=O)O)C(C)C)C(C)C)C(=O)N[C@@H](CCC(=O)O)C(=O)NCC(=O)N[C@@H](CO)C(=O)N[C@@H](CC(C)C)C(=O)N[C@@H](CCC(N)=O)C(=O)O [C-peptide, Recombinant human C-peptide]",Increase in pre-dosing morning C-peptide plasma level vs baseline,"[1]; High-dose C-peptide, n=4",0.13 ± 0.083 nmol/L
same,Increase in pre-dosing morning C-peptide plasma level vs baseline,"[1]; Low-dose C-peptide, n=8",0.045 ± 0.092 nmol/L
same,Accumulation following repeated C-peptide dosing,"[1]; dose ranges of the study, 4.5 months",likely no significant accumulation
same,level at time molar,"[1]; human, plasma, sc, during treatment, maximum in the high dose group, read-out: Plasma levels of C-peptide attained",0.2 to 6 nM
same,"BPd (diastolic blood pressure), change from baseline to 6 months treatment (visit 4), Mean ± SD","[2]; High-dose C-peptide, n = 39",−2.6 ± 8.0 mm Hg
same,"BPd (diastolic blood pressure), change from baseline to 6 months treatment (visit 4), Median","[2]; High-dose C-peptide, n = 39",−1.0 mm Hg
same,"BPs (systolic blood pressure), change from baseline to 6 months treatment (visit 4), Mean ± SD","[2]; High-dose C-peptide, n = 39",−8.8 ± 10.0 mm Hg
same,"BPs (systolic blood pressure), change from baseline to 6 months treatment (visit 4), Median","[2]; High-dose C-peptide, n = 39",−8.0 mm Hg
same,"Heart rate, change from baseline to 6 months treatment (visit 4), Mean ± SD","[2]; High-dose C-peptide, n = 39",−3.2 ± 10.0 bpm
same,"Heart rate, change from baseline to 6 months treatment (visit 4), Median","[2]; High-dose C-peptide, n = 39",−4.0 bpm
same,"QTc-interval Bazett, change from baseline to 6 months treatment (visit 4), Mean ± SD","[2]; High-dose C-peptide, n = 39",-4.5 ± 20.3 ms
same,"QTc-interval Bazett, change from baseline to 6 months treatment (visit 4), Median","[2]; High-dose C-peptide, n = 39",0.0 ms
same,"QTc-interval Fredericia, change from baseline to 6 months treatment (visit 4), Mean ± SD","[2]; High-dose C-peptide, n = 39",-0.5 ± 16.2 ms
same,"QTc-interval Fredericia, change from baseline to 6 months treatment (visit 4), Median","[2]; High-dose C-peptide, n = 39",0.0 ms
same,Decrease in systolic blood pressure compared to the low-dose C-peptide group,"[2]; High-dose C-peptide, p<0.004, not different from placebo",significantly greater decrease
same,"BPd (diastolic blood pressure), change from baseline to 6 months treatment (visit 4), Mean ± SD","[2]; Low-dose C-peptide, n = 53",−2.7 ± 8.2 mm Hg
same,"BPd (diastolic blood pressure), change from baseline to 6 months treatment (visit 4), Median","[2]; Low-dose C-peptide, n = 53",−1.0 mm Hg
same,"BPs (systolic blood pressure), change from baseline to 6 months treatment (visit 4), Mean ± SD","[2]; Low-dose C-peptide, n = 53",−2.1 ± 12.8 mm Hg
same,"BPs (systolic blood pressure), change from baseline to 6 months treatment (visit 4), Median","[2]; Low-dose C-peptide, n = 53",−1.0 mm Hg
same,"Heart rate, change from baseline to 6 months treatment (visit 4), Mean ± SD","[2]; Low-dose C-peptide, n = 53",−0.9 ± 8.2 bpm
same,"Heart rate, change from baseline to 6 months treatment (visit 4), Median","[2]; Low-dose C-peptide, n = 53",−2.0 bpm
same,"QTc-interval Bazett, change from baseline to 6 months treatment (visit 4), Mean ± SD","[2]; Low-dose C-peptide, n = 53",-0.1 ± 17.5 ms
same,"QTc-interval Bazett, change from baseline to 6 months treatment (visit 4), Median","[2]; Low-dose C-peptide, n = 53",0.0 ms
same,"QTc-interval Fredericia, change from baseline to 6 months treatment (visit 4), Mean ± SD","[2]; Low-dose C-peptide, n = 53",0.9 ± 14.1 ms
same,"QTc-interval Fredericia, change from baseline to 6 months treatment (visit 4), Median","[2]; Low-dose C-peptide, n = 53",1.3 ms
same,"Changes in heart rate, blood pressure, and QTc","[2]; any of the three treatment groups, 6 months",nor were there any significant changes
same,Abnormalities in ECG,[2]; during study medication treatment,no clinically significant abnormalities
same,Changes in clinical laboratory variables,[3],no significant changes in any of the variables
same,Bioavailability,[4],approximately 80%
same,AEs of severe intensity (S): Sepsis,"[5]; High-dose, ITT data set, Infections and infestations",S (1)
same,AEs of any severity: Tooth ache,"[5]; High-dose, PP data set",3
same,AEs of any severity: Urinary tract infection,"[5]; High-dose, PP data set, Infections and infestations",1
same,AEs of any severity: Skin infection,"[5]; High-dose, PP data set, Skin and subcutaneous tissue disorders",2
same,AEs of moderate intensity (M): Acute HIV infection,[5]; [6],M (1)
same,AEs of moderate intensity (M): Borrelia infection,[5]; [6],M (1)
same,AEs of moderate intensity (M): Herpes zoster,[5]; [6],M (1)
same,AEs of moderate intensity (M): Skin infection,"[5]; Low-dose, ITT data set, Skin and subcutaneous tissue disorders",M (1)
same,AEs of any severity: Tooth ache,"[5]; Low-dose, PP data set",2
same,AEs of any severity: Acute HIV infection,[5]; [7],1
same,AEs of any severity: Borrelia infection,[5]; [7],1
same,AEs of any severity: Herpes simplex,[5]; [7],1
same,AEs of any severity: Herpeszoster,[5]; [7],1
same,AEs of any severity: Influenza,[5]; [7],1
same,AEs of any severity: Nasopharyngitis,[5]; [7],31
same,AEs of any severity: Otitis,[5]; [7],1
same,AEs of any severity: Pharyngitis,[5]; [7],1
same,AEs of any severity: Sinusitis,[5]; [7],4
same,AEs of any severity: Skin infection,[5]; [7],5
same,AEs of any severity: Tonsilitis,[5]; [7],1
same,AEs of any severity: Upper respiratory tract infection,[5]; [7],3
same,AEs of any severity: Urinary tract infection,[5]; [7],3
same,AEs of any severity: Joint sprain ankle,[5]; [8],1
same,AEs of any severity: Rib fracture/injury,[5]; [8],1
same,AEs of any severity: Skin injury,[5]; [8],2
same,AEs of any severity: Elevated serum creatinine,[5]; [9],1
same,AEs of any severity: Hepatic enzyme increase,[5]; [9],2
same,AEs of any severity: Hyperkalaemia,[5]; [9],1
same,AEs of any severity: Weight increased,[5]; [9],1
same,Deaths,[5]; during the study,No deaths
